Patent US12590062B2, “PD-1/PD-L1 inhibitors” (Gilead Sciences, Inc., priority 2017, dated 2026)

Assays:
[1] = target: PD-1/PD-L1 (Homo sapiens, UniProt Q9NZQ7); test: PD-1/PD-L1 biochemical protein-protein interaction assay (ALPHA); type: binding; settings: 0.3 nM His tagged PD-L1, 2.5 nM biotinylated Fc-PD-1, 60 minutes at 25° C., read-out: IC50 PD-L1-PD-1 Alpha IC50-mono PD-L1-fcP-D1
Procedure, shortened: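 His-PD-L1 ECD 0.3 nM + biotin-Fc-PD-1 2.5 nM (final), 25 mM Hepes pH 7.4, 150 mM NaCl, 3.4 mM EDTA; 60 min, 25° C; anti-His acceptor/streptavidin donor ALPHA beads; decreased signal = blocked binding; 4-parameter IC50.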

[2] = target: T1, PD-1/PD-L1 interaction (Homo sapiens, UniProt Q9NZQ7); test: PD-1/PD-L1 NFAT reporter co-culture assay; type: cell-based; settings: Jurkat PD-1 NFAT-luciferase cells co-cultured with aAPC-PD-L1 CHO cells, 6 hrs at 37° C.; read-out: EC50 NFAT Luciferase
T1 construct: expressed in transfected cells; host or cells: CHO cells (aAPC-PD-L1) co-cultured with Jurkat cells overexpressing PD-1 and an NFAT-luciferase reporter
T1 sequence (Q9NZQ7 19-290): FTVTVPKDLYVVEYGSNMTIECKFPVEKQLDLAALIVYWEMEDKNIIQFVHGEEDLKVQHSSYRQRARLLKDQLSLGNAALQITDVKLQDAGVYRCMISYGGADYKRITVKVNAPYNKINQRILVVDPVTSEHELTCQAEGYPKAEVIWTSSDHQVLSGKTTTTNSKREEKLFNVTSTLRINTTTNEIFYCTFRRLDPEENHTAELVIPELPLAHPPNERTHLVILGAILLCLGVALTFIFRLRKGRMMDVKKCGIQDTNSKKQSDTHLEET
Procedure, shortened: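 First, CHO cells displaying anti-CD3 antibody and PD-L1 were plated overnight. Next, compound-treated PD-1 Jurkat NFAT-luciferase reporter cells in 2% FBS RPMI were added for 6 h at 37 °C. Finally, ONE-Glo luminescence was read and EC50 values fitted with a four-parameter equation.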

[3] = target: T2, PD-L1 (Homo sapiens, UniProt Q9NZQ7); test: PD-L1/PD-L1 dimerization biochemical protein-protein interaction assay (ALPHA); type: binding; settings: compound-induced PD-L1 dimerization, head prints '1 nM' (0.5 nM His-tagged PD-L1 and 0.5 nM FLAG-tagged PD-L1), read-out: AC50 PDL1 Dimer Alpha 1 nM
T2 construct: determine if they can specifically dimerize the extracellular domains of PD-L1
T2 sequence (Q9NZQ7 19-238 limits assumed): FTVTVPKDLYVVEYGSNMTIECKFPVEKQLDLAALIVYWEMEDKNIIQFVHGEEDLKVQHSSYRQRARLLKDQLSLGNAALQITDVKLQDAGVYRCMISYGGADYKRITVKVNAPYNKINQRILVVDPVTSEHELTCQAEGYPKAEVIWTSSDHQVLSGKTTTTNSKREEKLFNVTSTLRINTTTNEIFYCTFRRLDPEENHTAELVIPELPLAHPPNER
T2 sequence (Q9NZQ7 19-238 limits assumed): as above
Procedure, shortened: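 After 2 h at 25 °C with compound, His- and FLAG-tagged PD-L1 ECDs (each 0.5 nM final; 25 mM Hepes pH 7.4, 150 mM NaCl) were detected by sequential anti-His acceptor and anti-FLAG donor bead incubations. Dose-response curves fitted to four-parameter equation for AC50.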

PD-1/PD-L1, sequence (Q9NZQ7 19-238 limits assumed): as above

COc1nc(O[C@H]2CCc3c(-c4cccc(-c5ccc(C6=N[C@H](C)CN6)c(OC)n5)c4Cl)cccc32)c(Br)cc1CN[C@@](C)(CO)C(=O)O [Example 782]
IC50 [1]: 0.064 nM
EC50 [2]: 38 nM
AC50 [3]: 23.1 nM

COc1nc(O[C@H]2CCc3c(-c4cccc(-c5ccc6c(c5)C[C@@H](N)C6)c4Cl)cccc32)ccc1CN[C@@](C)(CO)C(=O)O [Example 783]
IC50 [1]: 0.259 nM
EC50 [2]: 2990 nM
AC50 [3]: 823 nM

COc1nc(O[C@H]2CCc3c(-c4cccc(-c5ccc6c(c5)C[C@@H](N)C6)c4Cl)cccc32)c(Br)cc1CN[C@@](C)(CO)C(=O)O [Example 784]
IC50 [1]: 0.064 nM
EC50 [2]: 182 nM
AC50 [3]: 28.9 nM

COc1nc(O[C@H]2CCc3c(-c4cccc(-c5ccc(C6=NCCN6)c(OC)n5)c4Cl)cccc32)c(Br)cc1CN1CCCC[C@H]1C(=O)O [Example 785]
IC50 [1]: 0.064 nM
EC50 [2]: 66 nM
AC50 [3]: 16.1 nM

COc1nc(O[C@H]2CCc3c(-c4cccc(-c5ccc(C6=NCCN6)c(OC)n5)c4Cl)cccc32)c(Br)cc1CNC(C)(C)C(=O)O [Example 786]
IC50 [1]: 0.064 nM
EC50 [2]: 86 nM
AC50 [3]: 12.2 nM

COc1nc(O[C@H]2CCc3c(-c4cccc(-c5ccc(C6=NCCN6)c(OC)n5)c4Cl)cccc32)c(Br)cc1CNC[C@@H](O)CC(=O)O [Example 787]
IC50 [1]: 0.066 nM
EC50 [2]: 58 nM
AC50 [3]: 35.4 nM

COc1nc(O[C@H]2CCc3c(-c4cccc(-c5ccc(C6=NCCN6)c(OC)n5)c4Cl)cccc32)c(Br)cc1CN[C@](C)(CO)C(=O)O [Example 788]
IC50 [1]: 0.064 nM
EC50 [2]: 39 nM
AC50 [3]: 11.8 nM

COc1nc(O[C@H]2CCc3c(-c4cccc(-c5ccc(C6=NCCN6)c(OC)n5)c4Cl)cccc32)c(Br)cc1CN[C@@](C)(CO)C(=O)O [Example 789]
IC50 [1]: 0.064 nM
EC50 [2]: 58 nM
AC50 [3]: 17.9 nM

COc1nc(O[C@H]2CCc3c(-c4cccc(-c5ccc(CNC[C@@H]6CCC(=O)N6)c(F)c5)c4Cl)cccc32)c(Br)cc1CNC[C@@H]1CCC(=O)N1 [Example 790]
IC50 [1]: 0.865 nM
EC50 [2]: 84 nM
AC50 [3]: 75.7 nM

COc1nc(O[C@H]2CCc3c(-c4cccc(-c5ccc(CNC[C@@H]6CCC(=O)N6)c(Cl)c5)c4Cl)cccc32)c(Br)cc1CNC[C@@H]1CCC(=O)N1 [Example 791]
IC50 [1]: 2.84 nM
EC50 [2]: 175 nM
AC50 [3]: 206 nM

COc1cc(-c2cccc(-c3cccc4c3CC[C@@H]4Oc3nc(OC)c(CNC[C@@H]4CCC(=O)N4)cc3Br)c2Cl)ccc1CNC[C@@H]1CCC(=O)N1 [Example 792]
IC50 [1]: 0.534 nM
EC50 [2]: 40 nM
AC50 [3]: 22.7 nM

COc1nc(O[C@H]2CCc3c(-c4cccc(-c5ccc6c(c5)C[C@@H](N)C6)c4Cl)cccc32)ccc1CNC[C@@H]1CCC(=O)N1 [Example 793]
IC50 [1]: 1.75 nM
EC50 [2]: 1810 nM
AC50 [3]: 187 nM

COc1nc(O[C@H]2CCc3c(-c4cccc(-c5ccc6c(c5)C[C@@H](N)C6)c4Cl)cccc32)c(Br)cc1CNC[C@@H]1CCC(=O)N1 [Example 794]
IC50 [1]: 1.73 nM
EC50 [2]: 794 nM
AC50 [3]: 94.2 nM

C[C@@](CO)(NCc1cc(Cl)c(O[C@H]2CCc3c(-c4cccc(-c5ccc6c(c5)CC(N)C6)c4Cl)cccc32)nc1OCc1cncc(C#N)c1)C(=O)O (stereo partly drawn) [Example 795]
IC50 [1]: 0.064 nM
EC50 [2]: 41 nM
AC50 [3]: 9.65 nM

COc1cc(O[C@H]2CCc3c(-c4cccc(-c5ccc(CN6CC7(CCC(=O)N7)C6)c(OC)n5)c4Cl)cccc32)c(Cl)cc1CNC[C@@H]1CCC(=O)N1 [Example 796]
IC50 [1]: 0.762 nM
EC50 [2]: 151 nM
AC50 [3]: 228 nM

COc1nc(-c2cccc(-c3cccc4c3CC[C@@H]4Oc3nc(OCc4cc(C#N)cc(C#N)c4)c(CNC[C@@H](O)CC(=O)O)cc3Cl)c2Cl)ccc1CNC[C@@H]1CCC(=O)N1 [Example 797]
IC50 [1]: 0.064 nM
EC50 [2]: 30 nM
AC50 [3]: 41.4 nM

COc1cc(-c2cccc(-c3cccc4c3CC[C@@H]4Oc3nc(OC)c(CNC[C@@H]4CCC(=O)N4)cc3Cl)c2Cl)nc(Cl)c1CNC[C@@H]1CCC(=O)N1 [Example 799]
IC50 [1]: 0.341 nM
EC50 [2]: 167 nM
AC50 [3]: 150 nM

COc1nc(-c2cc(F)cc(-c3cccc4c3CC[C@@H]4Oc3ccc(CNC[C@@H]4CCC(=O)N4)c(OCc4cncc(C#N)c4)n3)c2Cl)ccc1CNC[C@@H]1CCC(=O)N1 [Example 800]
IC50 [1]: 1.29 nM
EC50 [2]: 246 nM
AC50 [3]: 537 nM
